Laboratory results published in ChEMBL document CHEMBL1201862, “PubChem BioAssay data set” (2004).
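Dose response: 5 concentrations. Exposure: 48 h. Format: 96-well plates. Endpoint: linear interpolation; highest concentration if not reached. Abbreviation: GI50, concentration required for 50% inhibition of growth.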 Activity calls are given as the source filed them. Cut-off read from the data, not from the text of the source: active = GI50 up to about 1.1 µM and inactive = higher.

How the values were obtained:
Test in all cases: NCI-60 cell line screen, 48 h
SR = tested on: SR
NCI-H460 = tested on: NCI-H460
SF-539 = tested on: SF-539
K562 = tested on: K562
NCI/ADR-RES = tested on: NCI/ADR-RES
MCF7 = tested on: MCF7
SW-620 = tested on: SW-620
A498 = tested on: A498
TK-10 = tested on: TK-10
EKVX = tested on: EKVX
SF-295 = tested on: SF-295
UO-31 = tested on: UO-31
M14 = tested on: M14
CAKI-1 = tested on: CAKI-1
MDA-MB-435 = tested on: MDA-MB-435
KM12 = tested on: KM12
786-0 = tested on: 786-0
RPMI-8226 = tested on: RPMI-8226
RXF 393 = tested on: RXF 393

SMILES: O=S(=O)(N=[Se](=O)(c1ccccc1)c1ccccc1)c1ccccc1
- GI50 (SR): > 100 µM (inactive)
- GI50 (NCI-H460): > 100 µM (inactive)
- GI50 (SF-539): > 100 µM (inactive)
- GI50 (K562): > 100 µM (inactive)
- GI50 (NCI/ADR-RES): > 100 µM (inactive)
- GI50 (MCF7): 88.3 µM (inactive)
- GI50 (SW-620): > 100 µM (inactive)
- GI50 (A498): > 100 µM (inactive)
- GI50 (TK-10): > 100 µM (inactive)
- GI50 (EKVX): > 100 µM (inactive)
- GI50 (SF-295): > 100 µM (inactive)
- GI50 (UO-31): 58.1 µM (inactive)
- GI50 (M14): > 100 µM (inactive)
- GI50 (CAKI-1): > 100 µM (inactive)
- GI50 (MDA-MB-435): > 100 µM (inactive)
- GI50 (KM12): > 100 µM (inactive)
- GI50 (786-0): > 100 µM (inactive)
- GI50 (RPMI-8226): > 100 µM (inactive)

SMILES: O=C(Cc1nc2ccc(C(=O)c3ccccc3)cc2nc1O)C(=O)Nc1ccccc1[N+](=O)[O-]
- GI50 (SR): 29.2 µM (inactive)
- GI50 (NCI-H460): 53.6 µM (inactive)
- GI50 (SF-539): > 100 µM (inactive)
- GI50 (K562): 30.1 µM (inactive)
- GI50 (NCI/ADR-RES): 45.1 µM (inactive)
- GI50 (MCF7): 50 µM (inactive)
- GI50 (SW-620): 53.7 µM (inactive)
- GI50 (A498): > 100 µM (inactive)
- GI50 (RXF 393): 53.8 µM (inactive)
- GI50 (TK-10): 98.9 µM (inactive)
- GI50 (EKVX): 89.7 µM (inactive)
- GI50 (SF-295): 48.6 µM (inactive)
- GI50 (UO-31): 40 µM (inactive)
- GI50 (M14): 92 µM (inactive)
- GI50 (CAKI-1): 34.8 µM (inactive)
- GI50 (MDA-MB-435): 38.9 µM (inactive)
- GI50 (KM12): 24 µM (inactive)
- GI50 (786-0): 80.2 µM (inactive)
- GI50 (RPMI-8226): 34.1 µM (inactive)

SMILES: CCN(CC)c1ccc2c(c1)Nc1cc(=C(C#N)C#N)c3ccccc3c1=N2
- GI50 (SR): > 100 µM (inactive)
- GI50 (NCI-H460): 95.3 µM (inactive)
- GI50 (SF-539): > 100 µM (inactive)
- GI50 (K562): > 100 µM (inactive)
- GI50 (SW-620): 59 µM (inactive)
- GI50 (A498): > 100 µM (inactive)
- GI50 (RXF 393): > 100 µM (inactive)
- GI50 (TK-10): > 100 µM (inactive)
- GI50 (EKVX): > 100 µM (inactive)
- GI50 (SF-295): > 100 µM (inactive)
- GI50 (UO-31): > 100 µM (inactive)
- GI50 (M14): > 100 µM (inactive)
- GI50 (CAKI-1): > 100 µM (inactive)
- GI50 (KM12): > 100 µM (inactive)
- GI50 (786-0): > 100 µM (inactive)
- GI50 (RPMI-8226): > 100 µM (inactive)

SMILES: CN(CCO)/N=N/c1n[nH]cc1C(N)=O
- GI50 (NCI-H460): > 100 µM (inactive)
- GI50 (SF-539): > 100 µM (inactive)
- GI50 (K562): > 100 µM (inactive)
- GI50 (NCI/ADR-RES): > 100 µM (inactive)
- GI50 (MCF7): > 100 µM (inactive)
- GI50 (SW-620): > 100 µM (inactive)
- GI50 (A498): > 100 µM (inactive)
- GI50 (RXF 393): > 100 µM (inactive)
- GI50 (EKVX): > 100 µM (inactive)
- GI50 (SF-295): > 100 µM (inactive)
- GI50 (UO-31): > 100 µM (inactive)
- GI50 (CAKI-1): > 100 µM (inactive)
- GI50 (KM12): > 100 µM (inactive)
- GI50 (RPMI-8226): > 100 µM (inactive)

SMILES: Cc1nc(-n2nc(-c3ccccc3)cc2-c2ccccc2)sc1C(=O)CC(=O)C(=O)Nc1ccc(Cl)c(Cl)c1
- GI50 (SR): > 100 µM (inactive)
- GI50 (NCI-H460): 71.4 µM (inactive)
- GI50 (SF-539): 67.1 µM (inactive)
- GI50 (K562): 41.6 µM (inactive)
- GI50 (SW-620): 65.9 µM (inactive)
- GI50 (A498): 40.7 µM (inactive)
- GI50 (RXF 393): > 100 µM (inactive)
- GI50 (TK-10): > 100 µM (inactive)
- GI50 (EKVX): 15.1 µM (inactive)
- GI50 (SF-295): 79.3 µM (inactive)
- GI50 (UO-31): 77.1 µM (inactive)
- GI50 (M14): > 100 µM (inactive)
- GI50 (CAKI-1): 83 µM (inactive)
- GI50 (KM12): 35.9 µM (inactive)
- GI50 (786-0): > 100 µM (inactive)
- GI50 (RPMI-8226): 41.8 µM (inactive)

SMILES: O=C(c1cc2c(C(F)(F)F)onc2c2ccccc12)C(F)(F)F
- GI50 (SR): 1.41 µM (inactive)
- GI50 (NCI-H460): 1.24 µM (inactive)
- GI50 (SF-539): 3.75 µM (inactive)
- GI50 (K562): 0.855 µM (active)
- GI50 (SW-620): 2.68 µM (inactive)
- GI50 (A498): 12.7 µM (inactive)
- GI50 (RXF 393): 4.3 µM (inactive)
- GI50 (TK-10): 7.4 µM (inactive)
- GI50 (EKVX): 7.38 µM (inactive)
- GI50 (SF-295): 2.58 µM (inactive)
- GI50 (UO-31): 1.7 µM (inactive)
- GI50 (M14): 3.94 µM (inactive)
- GI50 (CAKI-1): 2.78 µM (inactive)
- GI50 (KM12): 0.746 µM (active)
- GI50 (786-0): 1.93 µM (inactive)
- GI50 (RPMI-8226): 0.935 µM (active)
